Assay results as given in PMC10434227 (Microbiology Spectrum, 2023).
Structures can show the parent of a compound that is named as a salt. Where two headings read alike, the source gives them in different places.

What was measured:
[1] = test system: rVACV Nluc/Scarlet; assay: microbe, parasite or virus in culture; type: cell-based, vaccinia virus (VACV)
[2] = test system: rVACV Nluc/GFP; assay: microbe, parasite or virus in culture; type: cell-based, vaccinia virus (VACV)
[3] = test system: MPXV USA-2003 (NR-2500) clade II; assay: microbe, parasite or virus in culture; type: cell-based, monkeypox virus (MPXV)
[4] = test system: A549 cells
[5] = test system: A549 cells; remark: listed apart in the source
[6] = test system: rVACV Nluc/Scarlet; type: cell-based, vaccinia virus (VACV)
[7] = test system: rVACV Nluc/GFP; type: cell-based, vaccinia virus (VACV)
[8] = test system: MPXV; type: cell-based, monkeypox virus (MPXV)
[9] = in vitro; conditions: human
[10] = in vitro; conditions: human; remark: listed apart in the source
[11] = Orthopoxvirus vaccinia, A549, read-out: EC50 FP (Scarlet fluorescence)
[12] = Orthopoxvirus vaccinia, A549, read-out: EC50 Nluc
[13] = read-out: EC50 FP (Scarlet fluorescence)
[14] = Orthopoxvirus vaccinia, A549, read-out: EC50 FP (GFP fluorescence)
[15] = Monkeypox virus, A549, read-out: EC50 against MPXV
[16] = read-out: EC50 FP (GFP fluorescence)

Compound	EC50 [1, 11] [nM]	EC50 [1, 12] [nM]	EC50 [1, 13] [nM]	EC50 [2, 14] [nM]	EC50 [2, 12] [nM]	EC50 [3, 15] [nM]	EC50 ([1]; read-out: EC50 Nluc) [nM]	EC50 [2, 16] [nM]	EC50 ([2]; read-out: EC50 Nluc) [nM]	inhibitory activity against MPXV (in words) [3]	EC50 ([3]; read-out: EC50 against MPXV) [nM]	CC50 [4] [nM]	CC50 [5] [nM]	extracellular viral titers [6]	extracellular viral titers [7]	extracellular viral titers [8]	CC50 [9] [nM]	CC50 [10] [nM]
FC(F)(F)c1ccc(/C=C/c2nc(COc3ccc(CCCCn4ccnn4)cc3)co2)cc1 [Mubritinib, mubritinib]	50	37	93	65	33	38	–	–	–	–	–	–	–	–	–	–	–	–
2,2′-bi-1H-benzimidazole	–	–	> 50000	–	–	–	> 50000	> 50000	> 50000	did not inhibit MPXV infection	> 50000	> 50000	> 50000	–	–	–	–	–
O=C(NN1C(=O)[C@@H]2[C@@H]3C=C[C@@H]([C@H]4C[C@@H]34)[C@@H]2C1=O)c1ccc(C(F)(F)F)cc1 [Tecovirimat, tecovirimat]	–	80	–	–	–	120	70	–	–	potently inhibited MPXV	150	–	–	dose-dependent decrease	dose-dependent decrease	dose-dependent decrease	> 50000	> 50000
O=c1cnn([C@@H]2O[C@H](CO)[C@@H](O)[C@H]2O)c(=O)[nH]1 [Azauridine, 6-azauridine]	840	1510	640	1740	1590	2390	–	–	1580	–	–	–	–	–	–	–	> 50000	> 50000
NC(=O)c1[nH]nc([C@@H]2O[C@H](CO)[C@@H](O)[C@H]2O)c1O [Pyrazofurin, pyrazofurin]	370	110	270	530	240	3400	–	–	–	–	–	–	–	–	–	–	> 50000	> 50000
NCC(=O)Nc1ccc(-n2nc(C(F)(F)F)cc2-c2ccc3c(ccc4ccccc43)c2)cc1 [Osu-03012, OSU-03012]	2320	2590	–	3290	2950	4390	–	–	2650	–	–	–	–	–	–	–	–	–
CCCCCC[C@H]1C(=O)O[C@H](C)[C@H](NC(=O)c2cccc(NC=O)c2O)C(=O)O[C@@H](C)[C@@H]1OC(=O)CC(C)C [Antimycin A, antimycin A]	70	90	–	80	130	10	–	60	120	–	–	–	–	–	–	–	–	–
COc1c(C)c2c(c(O)c1C/C=C(\C)CCC(=O)O)C(=O)OC2 [Mycophenolic acid, mycophenolic acid]	460	490	–	590	430	710	–	–	–	–	–	–	–	–	–	–	> 150000	> 150000
COc1c(C)c2c(c(O)c1C/C=C(\C)CCC(=O)OCCN1CCOCC1)C(=O)OC2 [Mycophenolate mofetil, mycophenolate mofetil]	1200	1040	–	870	800	1060	–	–	930	–	1960	–	–	–	–	–	> 150000	> 150000
CC[C@H](CC#N)OC(=O)N[C@@H](C)c1cccc(NC(=O)Nc2ccc(-c3cnco3)c(OC)c2)c1 [AVN-944]	130	110	–	70	70	170	–	–	–	–	–	–	–	–	–	–	> 50000	> 50000
2′,3′,5′-triacetyl-6-azauridine [Azaribine]	–	–	1320	–	–	–	1410	1030	1130	–	–	> 150000	> 150000	–	–	–	–	–
C=C(C)[C@H]1Cc2c(ccc3c2O[C@@H]2COc4cc(OC)c(OC)cc4[C@@H]2C3=O)O1 [Rotenone, rotenone]	15	8	–	10	7	7	–	–	–	–	–	–	–	–	–	–	–	–
Fc1ccc(CNc2ncnc3ccc(F)cc23)cc1 [Spautin-1, spautin-1]	–	–	6780	–	–	–	3040	4430	2800	–	3210	8000	> 50000	–	–	–	–	–
CC[C@@]1([C@@H]2O[C@@H]([C@H]3O[C@@](O)(CO)[C@H](C)C[C@@H]3C)C[C@@H]2C)CC[C@H]([C@]2(C)CC[C@]3(C[C@H](O)[C@@H](C)[C@@H]([C@@H](C)[C@@H](OC)[C@H](C)C(=O)O)O3)O2)O1 [Monensin, monensin sodium salt]	70	80	–	80	130	50	–	–	–	–	–	–	–	–	–	–	> 50000	> 50000
Cc1c(-c2ccc(-c3ccccc3F)cc2)nc2ccc(F)cc2c1C(=O)O [Brequinar, brequinar sodium salt hydrate]	120	110	–	180	< 40	160	–	–	40	–	–	–	–	–	–	–	> 50000	> 50000
CC(C)[C@@H]1NC(=O)[C@H](C)OC(=O)[C@@H](C(C)C)NC(=O)[C@@H](C(C)C)OC(=O)[C@H](C(C)C)NC(=O)[C@H](C)OC(=O)[C@@H](C(C)C)NC(=O)[C@@H](C(C)C)OC(=O)[C@H](C(C)C)NC(=O)[C@H](C)OC(=O)[C@@H](C(C)C)NC(=O)[C@@H](C(C)C)OC1=O [Valinomycin, valinomycin]	3	2	–	3	2	1	–	–	–	–	–	–	–	–	–	–	–	–
S=C(NCc1ccc2c(c1)OCO2)N1CCN(c2ncnc3c2oc2ccccc23)CC1 [Amuvatinib, amuvatinib]	4760	6830	–	3260	3890	3470	6630	–	–	–	–	–	–	–	–	–	–	–
CO/C=C(/C(=O)OC)c1ccccc1Oc1cc(Oc2ccccc2C#N)ncn1 [Azoxystrobin, azoxystrobin]	–	–	7920	–	–	–	6100	7850	6120	–	10800	27900	> 450000	–	–	–	–	–
O=C1c2ccccc2-n2c1nc1ccccc1c2=O [Tryptanthrin, tryptanthrin]	1390	870	1380	1340	810	4790	970	–	–	–	4780	–	–	–	–	–	–	–
CC[C@@H](C(=O)O)[C@@H]1O[C@@H]([C@@H](C)[C@H](O)[C@H](C)C(=O)[C@H](CC)[C@H]2O[C@]3(C=C[C@@H](O)[C@]4(CC[C@@](C)([C@H]5CC[C@](O)(CC)[C@H](C)O5)O4)O3)[C@H](C)C[C@@H]2C)[C@@H](C)C[C@@H]1C [Narasin, narasin sodium salt]	20	20	–	10	30	50	–	–	–	–	–	–	–	–	–	–	–	–
CC(C)(C)[C@H]1CC[C@H](CC2=C(O)C(=O)c3ccccc3C2=O)CC1 [Buparvaquone, buparvaquone]	1760	1120	–	1850	1070	7220	–	1950	–	–	–	–	–	–	–	–	–	–
